Test results published in patent US20250277793A1, “COMPOSITIONS AND METHODS FOR CANCER DIAGNOSIS” (AOA Dx, priority 2020, published 2025).
Several values for one entry are separate records, joined by “and”; a condition that tells them apart may be missing. Equal entries are not always repeated.

Key:
anti-GD2 mAbs = test: Direct binding ELISA, GD2 versions with anti-GD2 antibody; set-up: species or system mouse; details: antigen immobilized 10 ng/well, mAb 7 nM final; for OD(450 nm): individual replicate wells; for OD(450 nm) Average: mean of 3
Method: (§1) Native gangliosides (GD2 or GD3, Control), Tria-tri-GD2, Tria-tri-GD3, PAMAM-GD2, PAMAM-GD3, or the monomeric precursors AP-GD2 or AP-GD3 were immobilized onto polystyrene Corning Strip Well 96-well plates (10 ng/well). After bocking all wells with albumin (BSA), the wells were reacted for binding by anti-GD2 or […] (7 nM final) or with serum from mice vaccinated with PAMAM-GD2 (1:75 dilution). Secondary antibody used was horseradish peroxidase (HRP)-conjugated anti-mouse IgG (Sigma). BG=background control.

[1] = tested on: serum from mice vaccinated with PAMAM-GD2; test: Direct binding ELISA, GD2 versions with vaccinated mouse sera; details: antigen 10 ng/well, serum 1:75 dilution; for OD(450 nm): individual replicate wells; for OD(450 nm) Average: mean of 3
Method: as §1

[2] = Water solubility of intermediate carbohydrates; format: physicochemical; details: read-out: water soluble
Method: p-Aminophenylether-b-D-lactopyranoside (AP-Lac, from Toronto Research Chemicals) was used to enzymatically synthesize water soluble (>20 mg/ml) AP-GD2 and AP-GD3 intermediate carbohydrates. The synthesis of AP-GD2 included […] of AP-GD3 (4 mM), […] of UDP-GalNAc (5.4 mM), and 10.5 units of CgtA (construct CJL-30), 10 mM MnCl2 and 24 mM Hepes pH 7.0 in a final volume of 55 ml. The reaction mixture was incubated at 37° C. for 6.5 hr. Insoluble material was removed by centrifugation at 27,000 g for 15 min and the enzyme was removed by ultrafiltration using a 10 kDa membrane cut off. The filtrate was loaded on SepPak C18 5 g column (waters Corp) and the product was eluted with water while unidentified contaminants remained in the column. The product was further purified by anion exchange chromatography on HiTrapQ (GE Healthcare) using a gradient of 0-0.3 M NH4HCO3 and by size exclusion chromatography on a Superdex Peptide 10/300 GL column (GE Healthcare). The measured molecular weights of AP-GD2 (1,218 g/mol) and AP-GD3 (927 g/mol) correspond to expected values. Structures were verified by 1D and 2D NMR spectroscopy and mass spectrometry (EI-MS). […]

anti-GD3 mAbs = test: Direct binding ELISA, GD3 versions with anti-GD3 antibody; set-up: species or system mouse; details: antigen immobilized 10 ng/well, mAb 7 nM final; for OD(450 nm): individual replicate wells; for OD(450 nm) Average: mean of 3
Method: as §1

[3] = tested on: antisera raised against PAMAM-GD3; test: Direct binding ELISA, GD3 versions with vaccinated mouse sera; set-up: species or system mice; details: antigen 10 ng/well, serum 1:75 dilution; for OD(450 nm): individual replicate wells; for OD(450 nm) Average: mean of 3

OD(450 nm) (anti-GD2 mAbs)	OD(450 nm) Average (anti-GD2 mAbs)	OD(450 nm) [1]	OD(450 nm) Average [1]	solubility [2] [mg/mL]	OD(450 nm) (anti-GD3 mAbs)	OD(450 nm) Average (anti-GD3 mAbs)	OD(450 nm) (anti-GD2 mAbs; listed as Control)	Compound	OD(450 nm) [3]	OD(450 nm) Average [3]
0.483 and 0.558 and 0.568	0.5363	0.694 and 0.587 and 0.635	0.6387	> 20	–	–	–	CC(=O)NC1C(OC2C(CO)OC(OC3C(CO)OC(Oc4ccc(N)cc4)C(O)C3O)C(O)C2OC2(C(=O)O)CC(O)C(NC(C)=O)C([C@H](O)C(CO)OC3(C(=O)O)CC(O)C(NC(C)=O)C([C@H](O)[C@H](O)CO)O3)O2)OC(CO)C(O)C1O (stereo partly drawn) [AP-GD2, p-amino phenyl ether-GD2]	–	–
–	–	–	–	–	0.602 and 0.465 and 0.493	0.52	–	CC/C=C/C(O)C(CO[C@@H]1OC(CO)[C@@H](O[C@@H]2OC(CO)[C@H](O)C(O[C@]3(C(=O)O)CC(O)[C@@H](NC(C)=O)C([C@H](O)[C@@H](CO)O[C@]4(C(=O)O)CC(O)[C@@H](NC(C)=O)C([C@H](O)[C@H](O)CO)O4)O3)C2O)C(O)C1O)NC(=O)CC (stereo partly drawn) [GD3, reference compound]	0.646 and 0.534 and 0.555	0.5783
–	–	–	–	> 20	0.483 and 0.558 and 0.568	0.5363	–	CC(=O)NC1C(O)CC(OC2C(O)C(CO)OC(OC3C(CO)OC(Oc4ccc(N)cc4)C(O)C3O)C2O)(C(=O)O)OC1[C@H](O)C(CO)OC1(C(=O)O)CC(O)C(NC(C)=O)C([C@H](O)[C@H](O)CO)O1 (stereo partly drawn) [AP-GD3, p-amino phenyl ether-GD3]	0.483 and 0.558 and 0.568	0.5363
–	1.105	1.319 and 1.23 and 1.128	1.226	–	–	–	1.174 and 1.069 and 1.072	CC/C=C/C(O)C(CO[C@@H]1OC(CO)[C@@H](O[C@@H]2OC(CO)[C@H](O[C@@H]3OC(CO)[C@H](O)C(O)C3NC(C)=O)C(O[C@]3(C(=O)O)CC(O)[C@@H](NC(C)=O)C([C@H](O)[C@@H](CO)O[C@]4(C(=O)O)CC(O)[C@@H](NC(C)=O)C([C@H](O)[C@H](O)CO)O4)O3)C2O)C(O)C1O)NC(=O)CC (stereo partly drawn) [GD2, reference compound]	–	–
